Test results as given in patent US10041047B2, “Compositions and methods for epithelial stem cell expansion and culture” (The Brigham and Women's Hospital, Inc., priority 2013, dated 2018).

How the values were obtained:
[1] = tested on: Lgr5+ stem/progenitor cells derived from the mouse inner ear; assay: Culture of inner ear (cochlear) Lgr5-GFP epithelial cells in Matrigel; assay type: cell-based; conditions: single cochlear epithelial cells, 11 days (FIG. 13B)
[2] = tested on: Lgr5+ stem cells from the colon; assay: Colon crypt culture, Lgr5-GFP expression; assay type: cell-based, mouse; conditions: colon crypts (FIG. 3F)
Excerpt: FIGS. 3A and 3B depict colony numbers and live single cell numbers, respectively, from triplicate wells enumerated at each time point. Error bars indicate S.D. In FIG. 3A, the series are, from left to right, Day 0, Day 2, Day 4, Day 6, Day 8, and Day 10. FIG. 3C depicts FACS sorting of freshly isolated single Lgr5-GFP+ cells. A GFP^high single cell population was collected. Representative FACS analysis and the gating strategy to define the GFP+ cell population is shown. […] The GFP-population represents Lgr5- cells as well as Lgr5+/GFP- cells (i.e. GFP silenced stem cells), which is present in all unsorted crypt cultures, but not in sorted single Lgr5-GFP cell cultures (See FIG. 2C). A total of 10,000 live cells were analyzed for each sample. FIG. 3D depicts growth factor requirements for self-renewal of Lgr5+ stem cells in the CV culture condition. Crypts were cultured for 6 days in the presence of CHIR and VPA, with EGF, Noggin, R-spondin 1 and their combinations, as indicated. E: EGF (50 ng/ml); N: Noggin (100 ng/ml); R: R-spondin 1 (500 ng/ml); […] (1 mM). FIG. 3E depicts crypts cultured for 6 days in multiple conditions as indicated. GFP and brightfield images are shown. Scale bars: 200 μm. FIG. 3F depicts morphology and Lgr5-GFP expression of colon crypts cultured in ENR, ENR-C and ENR-CV conditions. […]

[3] = tested on: human small intestinal crypts; assay: Culture of human small intestinal crypts: LGR5 expression (RT-PCR) and cell number; assay type: cell-based; conditions: cell numbers at day 9 after seeding (FIG. 25A)
Excerpt: Human small intestinal crypts were isolated from a resected normal small intestinal specimen and cultured as described in Example 1. The same cell culture solutions used in the culture of mouse small intestinal stem cells/crypts, which comprise a combination of CHIR99021 and VPA or Tubastatin A added to the ENR (EGF, Noggin, R-Spondin 1) condition, were compared to published cell culture solutions for human intestinal stem cells/crypts (Jung et al., 2011; Sato et al., 2011). RT-PCR was used to assess the maintenance of epithelial stem cells in the culture, specifically by determining the self-renewal or differentiation status. LGR5 was used as a stem cell marker and ALPI, MUC2, CHGA and LYZ were used as differentiation markers. Cell growth was assessed by counting the cell number in the cultures and by observing the morphology and size of colonies.

[4] = tested on: Notch pathway genes (Notch1, Hes1, Atoh1); assay: Real-time RT-PCR of Notch pathway genes in cultured crypts; assay type: cell-based, mouse; conditions: VPA added to ENR or ENR-C for 24 hours
Protocol: Crypts were cultured in ENR-C condition with or without DAPT (D, 5 μM) and varying concentration of VPA (V, 0.25-4 mM) for 3 days. […] FIGS. 11B and 11C depict crypts cultured in the ENR (FIG. 11B) or ENR+CHIR (FIG. 11C) conditions for 4 days followed by addition of VPA at different concentrations for another 24 hours. The expression of Notch1, Hes1 and Atoh1 were analyzed by Real-time RT-PCR.
To investigate the effect of VPA on the activation of the Notch pathway, cells cultured in ENR or ENRC conditions were treated with VPA and analyzed for the expression of Notch pathway genes.

Structure (SMILES)	GFP expression [1]	cell proliferation [1]	colony-forming efficiency [1]	GFP expression of Lgr5+ stem cells from the colon [2]	proliferation of human small intestinal crypts (cell number) [3]	expression of Hes1 [4]	expression of Notch1 [4]
Cc1cnc(-c2cnc(NCCNc3ccc(C#N)cn3)nc2-c2ccc(Cl)cc2Cl)[nH]1 [CHIR99021, 6-[[2-[[4-(2,4-Dichlorophenyl)-5-(5-methyl-1H-imidazol-2-yl)-2-pyrimidinyl]amino]ethyl]amino]-3-pyridinecarbonitrile]	not CHIR alone	not CHIR alone	not CHIR alone				
CCCC(CCC)C(=O)O [Valproic Acid]				promoted GFP expression	increased cell proliferation	moderately decreased	moderately decreased
